The subject of data set [1] is recombinant NL4-3 virus (nef section replaced with Renilla luciferase gene) in MT-2 cells. Put plainly: HIV cell culture assay (antiviral activity, luciferase readout). The class given is cell-based. To be noted: serial dilutions of compound. In a few lines:
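Test compound in serial dilution was present while MT-2 cells were infected for 4–5 days with recombinant NL4-3 virus made in 293T cells. Antiviral activity was quantified as Renilla luciferase activity, read with a live-cell substrate. EC50 came from the median-effect equation.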

A short description of data set [2]: Compound cytotoxicity, XTT-based colorimetric assay. The class given is cell-based. To be noted: human, uninfected MT2 cells, day 4, XTT. The procedure, abridged: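 Run under the antiviral-assay protocol but without virus. Viability was read on day 4 and CC50 values were derived from the readout.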
For orientation: Formazan colour is commonly taken as a measure of viable cells.

Where [3] appears, read: Renilla, NL43, MT-2 cells infected for 4-5 days with recombinant NL4-3 Renilla luciferase virus.

A value given as a limit tells only on which side of the number the result lay.

As usually defined, the EC50 is the concentration at which the effect is half-maximal. By CC50 is commonly meant the concentration at which the toxic effect on the cells reaches its halfway point. A high value points to lower toxicity to the cells.

Take `CS(=O)(=O)Nc1nn(CC(F)F)c2c(-n3c([C@H](Cc4cc(F)cc(F)c4)NC(=O)Cn4nc(C(F)F)c5c4C(F)(F)[C@@H]4C[C@H]54)nc4cc(-c5ccccc5S(C)(=O)=O)ccc4c3=O)ccc(Cl)c12` [Example 176, N-((S)-1-(3-(4-chloro-1-(2,2-difluoroethyl)-3-(methylsulfonamido)-1H-indazol-7-yl)-7-(2-(methylsulfonyl)phenyl)-4-oxo-3,4-dihydroquinazolin-2-yl)-2-(3,5-difluorophenyl)ethyl)-2-((3bS,4aR)-3-(difluoromethyl)-5,5-difluoro-3b,4,4a,5-tetrahydro-1H-cyclopropa[3,4]cyclopenta[1,2-c]pyrazol-1-yl)acetamide]: in data set [1] (setting [3]), the EC50 came out at 0.066 nM. Besides, in data set [2], the CC50 at 4 day is > 500 nM.

`Cc1ccnc(-c2ccc3c(=O)n(-c4ccc(Cl)c5c(NS(C)(=O)=O)nn(CC(F)(F)F)c45)c([C@H](Cc4cc(F)cc(F)c4)NC(=O)Cn4nc(C(F)F)c5c4C(F)(F)[C@@H]4C[C@H]54)nc3c2)n1` [Example 162, N-((S)-1-(3-(4-chloro-3-(methylsulfonamido)-1-(2,2,2-trifluoroethyl)-1H-indazol-7-yl)-7-(4-methylpyrimidin-2-yl)-4-oxo-3,4-dihydroquinazolin-2-yl)-2-(3,5-difluorophenyl)ethyl)-2-((3bS,4aR)-3-(difluoromethyl)-5,5-difluoro-3b,4,4a,5-tetrahydro-1H-cyclopropa[3,4]cyclopenta[1,2-c]pyrazol-1-yl)acetamide]: the EC50 in data set [1] (setting [3]) is 0.059 nM. In addition, in data set [2], the CC50 at 4 day is > 500 nM.

`COc1cc(C)nc(-c2ccc3c(=O)n(-c4ccc(Cl)c5c(NS(C)(=O)=O)nn(C)c45)c([C@H](Cc4cc(F)cc(F)c4)NC(=O)Cn4nc(C(F)F)c5c4C(F)(F)[C@@H]4C[C@H]54)nc3c2)n1` (atropisomer, axis not shown; (aR)) [Example 131, N-((S)-1-(3-(4-chloro-1-methyl-3-(methylsulfonamido)-1H-indazol-7-yl)-7-(4-methoxy-6-methylpyrimidin-2-yl)-4-oxo-3,4-dihydroquinazolin-2-yl)-2-(3,5-difluorophenyl)ethyl)-2-((3bS,4aR)-3-(difluoromethyl)-5,5-difluoro-3b,4,4a,5-tetrahydro-1H-cyclopropa[3,4]cyclopenta[1,2-c]pyrazol-1-yl)acetamide]: the EC50 in data set [1] (setting [3]) is 0.11 nM. In addition, the CC50 at 4 day in data set [2] was > 500 nM.

On to `O=C(Cn1nc(C(F)F)c2c1C(F)(F)[C@@H]1C[C@H]21)N[C@@H](Cc1cc(F)cc(F)c1)c1nc2cc(-c3ncccn3)ccc2c(=O)n1-c1ccc(Cl)c2c(NS(=O)(=O)C3CC3)nn(CC(F)F)c12` (atropisomer, axis not shown; (aR)) [Example 127, N-((S)-1-(3-(4-chloro-3-(cyclopropanesulfonamido)-1-(2,2-difluoroethyl)-1H-indazol-7-yl)-4-oxo-7-(pyrimidin-2-yl)-3,4-dihydroquinazolin-2-yl)-2-(3,5-difluorophenyl)ethyl)-2-((3bS,4aR)-3-(difluoromethyl)-5,5-difluoro-3b,4,4a,5-tetrahydro-1H-cyclopropa[3,4]cyclopenta[1,2-c]pyrazol-1-yl)acetamide], for which, in data set [1] (setting [3]), the EC50 was 0.059 nM. Further, the CC50 at 4 day in data set [2] was > 500 nM.

On to `COc1cccc(OC)c1-c1ccc2c(=O)n(-c3ccc(S(=O)(=O)N4CCOCC4)cc3)c([C@H](Cc3cc(F)cc(F)c3)NC(=O)Cn3nc(C(F)F)c4c3C(F)(F)[C@@H]3C[C@H]43)nc2c1` [Example 83, 2-((3bS,4aR)-3-(difluoromethyl)-5,5-difluoro-3b,4,4a,5-tetrahydro-1H-cyclopropa[3,4]cyclopenta[1,2-c]pyrazol-1-yl)-N-((S)-2-(3,5-difluorophenyl)-1-(7-(2,6-dimethoxyphenyl)-3-(4-(morpholinosulfonyl)phenyl)-4-oxo-3,4-dihydroquinazolin-2-yl)ethyl)acetamide], for which the half-maximal effective concentration (EC50) in data set [1] (setting [3]) was 5 nM. For the same compound, the CC50 at 4 day in data set [2] was > 1000 nM.

On to `Cn1nc(NS(C)(=O)=O)c2c(Cl)ccc(-n3c([C@H](Cc4cc(F)cc(F)c4)NC(=O)Cn4nc(C(F)F)c5c4C(F)(F)[C@@H]4C[C@H]54)nc4cc(-c5cccc(F)c5CO)ccc4c3=O)c21` (atropisomer, axis not shown; (aR)) [Example 44, N-((S)-1-(3-(4-chloro-1-methyl-3-(methylsulfonamido)-1H-indazol-7-yl)-7-(3-fluoro-2-(hydroxymethyl)phenyl)-4-oxo-3,4-dihydroquinazolin-2-yl)-2-(3,5-difluorophenyl)ethyl)-2-((3bS,4aR)-3-(difluoromethyl)-5,5-difluoro-3b,4,4a,5-tetrahydro-1H-cyclopropa[3,4]cyclopenta[1,2-c]pyrazol-1-yl)acetamide], for which, in data set [1] (setting [3]), the EC50 turned out to be 0.12 nM. Also, the CC50 at 4 day in data set [2] was > 1000 nM.

With `Cn1nc(NS(C)(=O)=O)c2c(Cl)ccc(-n3c([C@H](Cc4cc(F)cc(F)c4)NC(=O)Cn4nc(C(F)F)c5c4C(F)(F)[C@@H]4C[C@H]54)nc4cc(-c5ccc(C(C)(C)O)cc5)ccc4c3=O)c21` (atropisomer, axis not shown; (aR)) [Example 18, N-((S)-1-(3-(4-chloro-1-methyl-3-(methylsulfonamido)-1H-indazol-7-yl)-7-(4-(2-hydroxypropan-2-yl)phenyl)-4-oxo-3,4-dihydroquinazolin-2-yl)-2-(3,5-difluorophenyl)ethyl)-2-((3bS,4aR)-3-(difluoromethyl)-5,5-difluoro-3b,4,4a,5-tetrahydro-1H-cyclopropa[3,4]cyclopenta[1,2-c]pyrazol-1-yl)acetamide], in data set [1] (setting [3]), the EC50 was determined as 0.34 nM. The CC50 at 4 day in data set [2] was > 1000 nM.

With `Cn1nc(NS(C)(=O)=O)c2c(Cl)ccc(-n3c([C@H](Cc4cc(F)cc(F)c4)NC(=O)Cn4nc(C(F)F)c5c4C(F)(F)[C@@H]4C[C@H]54)nc4cc(-c5ccc(F)c(C#N)c5)ccc4c3=O)c21` (atropisomer, axis not shown; (aR)) [Example 97, N-((S)-1-(3-(4-chloro-1-methyl-3-(methylsulfonamido)-1H-indazol-7-yl)-7-(3-cyano-4-fluorophenyl)-4-oxo-3,4-dihydroquinazolin-2-yl)-2-(3,5-difluorophenyl)ethyl)-2-((3bS,4aR)-3-(difluoromethyl)-5,5-difluoro-3b,4,4a,5-tetrahydro-1H-cyclopropa[3,4]cyclopenta[1,2-c]pyrazol-1-yl)acetamide], the 50% effective concentration (EC50) in data set [1] (setting [3]) is 0.4 nM. Besides, the CC50 at 4 day in data set [2] was > 1000 nM.

Take `Cn1nc(NS(C)(=O)=O)c2c(Cl)ccc(-n3c([C@H](Cc4cc(F)cc(F)c4)NC(=O)Cn4nc(C(F)F)c5c4C(F)(F)[C@@H]4C[C@H]54)nc4cc(-c5ccc(Cl)cc5F)ccc4c3=O)c21` [Example 184, N-((S)-1-(3-(4-chloro-1-methyl-3-(methylsulfonamido)-1H-indazol-7-yl)-7-(4-chloro-2-fluorophenyl)-4-oxo-3,4-dihydroquinazolin-2-yl)-2-(3,5-difluorophenyl)ethyl)-2-((3bS,4aR)-3-(difluoromethyl)-5,5-difluoro-3b,4,4a,5-tetrahydro-1H-cyclopropa[3,4]cyclopenta[1,2-c]pyrazol-1-yl)acetamide]: in data set [1] (setting [3]), the EC50 came out at 1.8 nM. In addition, in data set [2], the CC50 at 4 day was > 500 nM.

For the compound `Cn1nc(NS(C)(=O)=O)c2c(Cl)ccc(-n3c([C@H](Cc4cc(F)cc(F)c4)NC(=O)Cn4nc(C(F)F)c5c4C(F)(F)[C@@H]4C[C@H]54)nc4cc(-c5ccc(F)c(CO)c5)ccc4c3=O)c21` (atropisomer, axis not shown; (aR)) [Example 98, N-((S)-1-(3-(4-chloro-1-methyl-3-(methylsulfonamido)-1H-indazol-7-yl)-7-(4-fluoro-3-(hydroxymethyl)phenyl)-4-oxo-3,4-dihydroquinazolin-2-yl)-2-(3,5-difluorophenyl)ethyl)-2-((3bS,4aR)-3-(difluoromethyl)-5,5-difluoro-3b,4,4a,5-tetrahydro-1H-cyclopropa[3,4]cyclopenta[1,2-c]pyrazol-1-yl)acetamide], the EC50 in data set [1] (setting [3]) was 0.39 nM. In addition, the CC50 at 4 day in data set [2] is > 1000 nM.

For the compound `COc1ccc(-c2ccc3c(=O)n(-c4ccc(Cl)c5c(NS(C)(=O)=O)nn(C)c45)c([C@H](Cc4cc(F)cc(F)c4)NC(=O)Cn4nc(C(F)F)c5c4C(F)(F)[C@@H]4C[C@H]54)nc3c2)c(CO)c1` [Example 179, N-((S)-1-(3-(4-chloro-1-methyl-3-(methylsulfonamido)-1H-indazol-7-yl)-7-(2-(hydroxymethyl)-4-methoxyphenyl)-4-oxo-3,4-dihydroquinazolin-2-yl)-2-(3,5-difluorophenyl)ethyl)-2-((3bS,4aR)-3-(difluoromethyl)-5,5-difluoro-3b,4,4a,5-tetrahydro-1H-cyclopropa[3,4]cyclopenta[1,2-c]pyrazol-1-yl)acetamide], in data set [1] (setting [3]), the EC50 came out at 0.235 nM. In addition, the cytotoxic concentration (CC50) at 4 day in data set [2] was > 500 nM.

Turning to `CS(=O)(=O)c1ccccc1-c1ccc2c(=O)n(-c3ccc(Cl)c4c(NS(=O)(=O)C5CC5)nn(CC(F)F)c34)c([C@H](Cc3cc(F)cc(F)c3)NC(=O)Cn3nc(C(F)F)c4c3C(F)(F)[C@@H]3C[C@H]43)nc2c1` [Example 160, N-((S)-1-(3-(4-chloro-3-(cyclopropanesulfonamido)-1-(2,2-difluoroethyl)-1H-indazol-7-yl)-7-(2-(methylsulfonyl)phenyl)-4-oxo-3,4-dihydroquinazolin-2-yl)-2-(3,5-difluorophenyl)ethyl)-2-((3bS,4aR)-3-(difluoromethyl)-5,5-difluoro-3b,4,4a,5-tetrahydro-1H-cyclopropa[3,4]cyclopenta[1,2-c]pyrazol-1-yl)acetamide], the EC50 in data set [1] (setting [3]) is 0.082 nM. For the same compound, in data set [2], the CC50 at 4 day is > 500 nM.

With `Cn1nc(NS(C)(=O)=O)c2c(Cl)ccc(-n3c([C@H](Cc4cc(F)cc(F)c4)NC(=O)Cn4ccc(C5CC5)n4)nc4cc(-c5ccccc5F)ccc4c3=O)c21` (single isomer, unassigned) [Example 3], the EC50 in data set [1] (MT-2 cells infected for 4-5 days with recombinant NL4-3 Renilla luciferase virus) is 63.1 nM. In addition, in data set [2], the CC50 at 4 day was > 1000 nM.

These data come from patent publication US11505543B2, “4-oxo-3,4-dihydroquinazoline compounds as inhibitors of human immunodeficiency virus replication” (VIIV HEALTHCARE UK (NO.5) LIMITED, priority 2018, dated 2022).
